Assay results published in PubChem BioAssay (NCI).
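Cells were grown in 96-well plates and exposed to each compound for 48 hours at five concentrations; endpoints were interpolated linearly between bracketing concentrations, or set to the highest concentration if not reached. At the TGI there is no net growth.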

Experiments:
Test in all cases: NCI-60 cell line screen, 48 h
OVCAR-4 ovarian = system: OVCAR-4 ovarian
SW-620 colon = system: SW-620 colon
TK-10 renal = system: TK-10 renal
SK-MEL-2 melanoma = system: SK-MEL-2 melanoma
SF-539 CNS = system: SF-539 CNS
SR leukemia = system: SR leukemia
NCI/ADR-RES ovarian = system: NCI/ADR-RES ovarian
MALME-3M melanoma = system: MALME-3M melanoma
RPMI-8226 leukemia = system: RPMI-8226 leukemia
UACC-62 melanoma = system: UACC-62 melanoma
EKVX NSCLC = system: EKVX NSCLC
SK-MEL-28 melanoma = system: SK-MEL-28 melanoma
SK-MEL-5 melanoma = system: SK-MEL-5 melanoma
PC-3 prostate = system: PC-3 prostate
COLO 205 colon = system: COLO 205 colon
MCF7 breast = system: MCF7 breast
A498 renal = system: A498 renal
T-47D breast = system: T-47D breast
LOX IMVI melanoma = system: LOX IMVI melanoma
SF-295 CNS = system: SF-295 CNS
HCT-15 colon = system: HCT-15 colon
SF-268 CNS = system: SF-268 CNS
KM12 colon = system: KM12 colon
HCT-116 colon = system: HCT-116 colon
U251 CNS = system: U251 CNS
HL-60(TB) leukemia = system: HL-60(TB) leukemia
BT-549 breast = system: BT-549 breast
OVCAR-3 ovarian = system: OVCAR-3 ovarian
K-562 leukemia = system: K-562 leukemia
UO-31 renal = system: UO-31 renal
SN12C renal = system: SN12C renal
CCRF-CEM leukemia = system: CCRF-CEM leukemia
786-0 renal = system: 786-0 renal
MDA-MB-435 = system: MDA-MB-435
IGROV1 ovarian = system: IGROV1 ovarian
UACC-257 melanoma = system: UACC-257 melanoma
HT29 colon = system: HT29 colon
SK-OV-3 ovarian = system: SK-OV-3 ovarian
MDA-MB-231 breast = system: MDA-MB-231 breast
A549 NSCLC = system: A549 NSCLC
SNB-19 CNS = system: SNB-19 CNS
M14 melanoma = system: M14 melanoma
OVCAR-8 ovarian = system: OVCAR-8 ovarian
DU-145 prostate = system: DU-145 prostate
NCI-H460 lung = system: NCI-H460 lung
HOP-62 NSCLC = system: HOP-62 NSCLC
MOLT-4 leukemia = system: MOLT-4 leukemia
HOP-92 NSCLC = system: HOP-92 NSCLC
NCI-H522 lung = system: NCI-H522 lung
RXF 393 renal = system: RXF 393 renal
HCC-2998 colon = system: HCC-2998 colon
OVCAR-5 ovarian = system: OVCAR-5 ovarian
HS 578T breast = system: HS 578T breast
ACHN renal = system: ACHN renal
CAKI-1 renal = system: CAKI-1 renal
MDA-N = system: MDA-N
NCI-H23 lung = system: NCI-H23 lung

Compound `CCOC(=O)c1cc(C)n(CN(CCO)Cn2nc(C(=O)OCC)cc2C)n1` has a TGI (OVCAR-4 ovarian) of over 100 µM, a TGI (SW-620 colon) of over 100 µM and a TGI (TK-10 renal) of over 100 µM. For the same compound, the TGI (SK-MEL-2 melanoma) was 36.8 µM, the TGI (SF-539 CNS) was 33.6 µM and the TGI (SR leukemia) was 72.7 µM. It also gave a TGI (NCI/ADR-RES ovarian) of 42.5 µM, a TGI (MALME-3M melanoma) of 96.1 µM and a TGI (RPMI-8226 leukemia) of 40.3 µM. It also gave a TGI (UACC-62 melanoma) of 38.2 µM, a TGI (EKVX NSCLC) of over 100 µM and a TGI (SK-MEL-28 melanoma) of over 100 µM. For the same compound, the TGI (SK-MEL-5 melanoma) was over 100 µM, the TGI (PC-3 prostate) was over 100 µM and the TGI (COLO 205 colon) was 41.9 µM. For the same compound, the TGI (MCF7 breast) was 73.7 µM, the TGI (A498 renal) was over 100 µM and the TGI (T-47D breast) was 72.3 µM. The TGI (LOX IMVI melanoma) was 70.1 µM, the TGI (SF-295 CNS) was over 100 µM and the TGI (HCT-15 colon) was 48.1 µM. The TGI (SF-268 CNS) was over 100 µM, the TGI (KM12 colon) was over 100 µM and the TGI (HCT-116 colon) was 37.7 µM. For the same compound, the TGI (U251 CNS) was over 100 µM, the TGI (HL-60(TB) leukemia) was over 100 µM and the TGI (BT-549 breast) was 68.7 µM. It also gave a TGI (OVCAR-3 ovarian) of 70.1 µM, a TGI (K-562 leukemia) of 78.3 µM and a TGI (UO-31 renal) of 53.2 µM. It also gave a TGI (SN12C renal) of 79.2 µM, a TGI (CCRF-CEM leukemia) of 42.2 µM and a TGI (786-0 renal) of 49.7 µM. For the same compound, the TGI (MDA-MB-435) was over 100 µM, the TGI (IGROV1 ovarian) was over 100 µM and the TGI (UACC-257 melanoma) was over 100 µM. The TGI (HT29 colon) was 47.4 µM, the TGI (SK-OV-3 ovarian) was over 100 µM and the TGI (MDA-MB-231 breast) was 91.2 µM. It also gave a TGI (A549 NSCLC) of over 100 µM, a TGI (SNB-19 CNS) of over 100 µM and a TGI (M14 melanoma) of 44 µM. It also gave a TGI (OVCAR-8 ovarian) of 59.9 µM, a TGI (DU-145 prostate) of 71.5 µM and a TGI (NCI-H460 lung) of over 100 µM. It also gave a TGI (HOP-62 NSCLC) of 62.9 µM, a TGI (MOLT-4 leukemia) of over 100 µM and a TGI (HOP-92 NSCLC) of over 100 µM. It also gave a TGI (NCI-H522 lung) of 52.1 µM, a TGI (RXF 393 renal) of 43.9 µM and a TGI (HCC-2998 colon) of 27.9 µM. It also gave a TGI (OVCAR-5 ovarian) of 54.1 µM, a TGI (HS 578T breast) of over 100 µM and a TGI (ACHN renal) of 55.6 µM. For the same compound, the TGI (CAKI-1 renal) was over 100 µM, the TGI (MDA-N) was over 100 µM and the TGI (NCI-H23 lung) was 53.8 µM.
